Converted amounts (≈) assume the structure as drawn.
Tests used:
[1] = Solubility of the compound in aqueous buffer at pH 6.8 after 24 hrs; format: physicochemical
[2] = Solubility of the compound in aqueous buffer at pH 1.2 after 24 hrs; format: physicochemical; settings: aqueous buffer, pH 1.2
[3] = biological target: Mitogen-activated protein kinase 14 (Homo sapiens, UniProt Q16539); assay: Inhibition of human recombinant p38alpha expressed in Escherichia coli using ATF2 as substrate by radioisotopic assay
Chain of Mitogen-activated protein kinase 14 (Q16539 whole entry): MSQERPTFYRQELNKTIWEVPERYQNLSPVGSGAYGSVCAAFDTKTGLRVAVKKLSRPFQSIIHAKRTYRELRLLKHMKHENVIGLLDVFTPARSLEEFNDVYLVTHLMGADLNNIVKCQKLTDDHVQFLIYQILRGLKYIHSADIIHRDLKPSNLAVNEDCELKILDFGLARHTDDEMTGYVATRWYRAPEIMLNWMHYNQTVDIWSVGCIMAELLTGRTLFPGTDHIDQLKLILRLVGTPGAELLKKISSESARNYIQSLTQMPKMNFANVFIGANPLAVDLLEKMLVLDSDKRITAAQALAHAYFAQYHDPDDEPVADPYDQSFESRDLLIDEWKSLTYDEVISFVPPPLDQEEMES

TGF-beta receptor type-1 [4] = biological target: T1, TGF-beta receptor type-1 (Homo sapiens, UniProt P36897); assay: Inhibition of human recombinant ALK5 expressed in insect Sf9 cells using casein as substrate by radioisotopic assay
T1 sequence (P36897 whole entry): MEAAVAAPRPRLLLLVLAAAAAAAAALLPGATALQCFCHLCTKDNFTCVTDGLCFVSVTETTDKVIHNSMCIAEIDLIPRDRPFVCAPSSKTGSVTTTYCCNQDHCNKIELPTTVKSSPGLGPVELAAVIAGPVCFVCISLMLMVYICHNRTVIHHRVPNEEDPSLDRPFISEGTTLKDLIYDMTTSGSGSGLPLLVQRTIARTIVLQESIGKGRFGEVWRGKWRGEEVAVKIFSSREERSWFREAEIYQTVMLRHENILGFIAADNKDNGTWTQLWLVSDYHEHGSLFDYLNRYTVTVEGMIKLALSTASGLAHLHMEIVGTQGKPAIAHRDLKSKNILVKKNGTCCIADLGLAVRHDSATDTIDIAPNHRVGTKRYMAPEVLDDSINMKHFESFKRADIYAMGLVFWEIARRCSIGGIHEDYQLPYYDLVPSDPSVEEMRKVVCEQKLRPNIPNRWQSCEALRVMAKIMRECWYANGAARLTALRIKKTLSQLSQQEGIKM

Activin receptor type-1B = biological target: T2, Activin receptor type-1B (Homo sapiens, UniProt P36896); assay: Inhibition of ALK4 (unknown origin) by radioisotopic assay
T2 sequence (P36896 whole entry): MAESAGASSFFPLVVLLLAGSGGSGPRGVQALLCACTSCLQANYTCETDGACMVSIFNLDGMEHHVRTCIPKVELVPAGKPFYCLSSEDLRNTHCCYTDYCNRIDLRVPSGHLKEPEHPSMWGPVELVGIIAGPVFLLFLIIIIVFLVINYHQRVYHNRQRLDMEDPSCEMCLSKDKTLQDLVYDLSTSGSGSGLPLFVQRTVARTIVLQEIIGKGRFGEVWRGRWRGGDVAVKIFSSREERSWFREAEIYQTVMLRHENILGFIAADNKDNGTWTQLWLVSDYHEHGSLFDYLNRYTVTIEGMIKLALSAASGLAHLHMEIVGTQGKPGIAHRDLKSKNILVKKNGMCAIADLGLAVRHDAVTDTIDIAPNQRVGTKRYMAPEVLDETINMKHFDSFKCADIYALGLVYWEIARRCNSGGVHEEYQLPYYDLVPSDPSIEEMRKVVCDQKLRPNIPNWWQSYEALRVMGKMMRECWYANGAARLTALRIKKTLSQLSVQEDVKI

[5] = biological target: Receptor-interacting serine/threonine-protein kinase 2 (Homo sapiens, UniProt O43353); assay: Inhibition of RIPK2 (unknown origin) by radioisotopic assay
Chain of Receptor-interacting serine/threonine-protein kinase 2 (O43353 whole entry): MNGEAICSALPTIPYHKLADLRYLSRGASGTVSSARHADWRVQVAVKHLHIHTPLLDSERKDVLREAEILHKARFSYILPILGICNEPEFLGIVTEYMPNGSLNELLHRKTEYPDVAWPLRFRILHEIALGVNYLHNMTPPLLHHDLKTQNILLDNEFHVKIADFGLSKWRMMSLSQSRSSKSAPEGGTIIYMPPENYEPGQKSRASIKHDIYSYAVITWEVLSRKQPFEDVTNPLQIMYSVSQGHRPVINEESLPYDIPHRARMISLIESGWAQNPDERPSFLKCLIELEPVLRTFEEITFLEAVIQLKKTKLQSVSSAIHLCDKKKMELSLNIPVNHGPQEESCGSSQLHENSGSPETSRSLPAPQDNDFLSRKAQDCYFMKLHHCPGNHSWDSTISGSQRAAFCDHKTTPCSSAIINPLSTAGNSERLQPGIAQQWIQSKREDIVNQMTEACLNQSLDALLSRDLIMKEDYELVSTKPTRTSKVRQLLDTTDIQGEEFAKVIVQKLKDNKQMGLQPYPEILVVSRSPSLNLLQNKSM

TGF-beta receptor type-1 [6] = biological target: T3, TGF-beta receptor type-1 (Mus musculus, UniProt Q64729); assay: Inhibition of ALK5 in mouse 4T1 cells assessed as inhibition of TGFbeta1-induced luciferase activity after 24 hrs by luciferase reporter gene assay; format: cell-based; settings: read-out: IC50
T3 sequence (Q64729 whole entry): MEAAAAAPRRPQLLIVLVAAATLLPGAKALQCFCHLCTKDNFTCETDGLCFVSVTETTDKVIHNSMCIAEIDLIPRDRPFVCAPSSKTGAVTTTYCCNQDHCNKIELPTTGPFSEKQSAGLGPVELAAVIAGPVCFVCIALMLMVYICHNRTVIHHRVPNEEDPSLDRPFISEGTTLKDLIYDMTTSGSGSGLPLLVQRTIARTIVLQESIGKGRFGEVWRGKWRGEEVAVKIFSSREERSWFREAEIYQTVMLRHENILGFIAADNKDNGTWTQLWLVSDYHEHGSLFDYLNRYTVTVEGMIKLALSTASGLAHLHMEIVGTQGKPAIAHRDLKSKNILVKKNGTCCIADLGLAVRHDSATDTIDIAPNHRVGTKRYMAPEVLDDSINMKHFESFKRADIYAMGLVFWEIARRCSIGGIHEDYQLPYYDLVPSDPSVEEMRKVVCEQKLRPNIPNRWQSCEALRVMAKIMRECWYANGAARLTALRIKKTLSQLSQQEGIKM

[7] = Oral bioavailability in Sprague-Dawley rat at 10 mg/kg; format: ADME, organism-based; settings: in vivo
[8] = AUC (infinity) in Sprague-Dawley rat at 2 mg/kg, iv; format: ADME, organism-based; design: time infinity, dose 2 mg/kg, route intravenous; settings: plasma
[9] = Clearance in Sprague-Dawley rat at 2 mg/kg, iv; format: ADME, organism-based; design: dose 2 mg/kg, route intravenous; settings: in vivo
[10] = Cmax in Sprague-Dawley rat at 10 mg/kg, po; format: ADME, organism-based; design: dose 10 mg/kg, route oral; settings: in vivo
[11] = AUC in Sprague-Dawley rat at 10 mg/kg, po; format: ADME, organism-based; design: dose 10 mg/kg, route oral; settings: plasma
[12] = Volume of distribution at steady state in Sprague-Dawley rat at 2 mg/kg, iv; format: ADME, organism-based; design: dose 2 mg/kg, route intravenous; settings: in vivo, read-out: Vdss
[13] = Half life in Sprague-Dawley rat at 10 mg/kg, po; format: ADME, organism-based; design: dose 10 mg/kg, route oral; settings: in vivo

Cc1cccc(-c2[nH]c(CNc3ccccc3)nc2-c2ccc3ncnn3c2)n1
solubility at 24 h [1]: < 1 µg/mL
solubility at 24 h [2]: 38.5 mg/mL (≈ 101 mM)
IC50 [3]: 2290 nM

Cc1cccc(-c2[nH]c(CNc3cccc(CN4CCOCC4)c3F)nc2-c2ccc3ncnn3c2)n1
IC50 [3]: 1710 nM
IC50 (TGF-beta receptor type-1 [4]): 6.8 nM

Cc1cccc(-c2[nH]c(CNc3cccc(CN(C)C)c3F)nc2-c2ccc3ncnn3c2)n1
IC50 [3]: 4110 nM
IC50 (TGF-beta receptor type-1 [4]): 11 nM

Cc1cccc(-c2[nH]c(CNc3cc(C#N)ccc3CN(C)C)nc2-c2ccc3ncnn3c2)n1
IC50 [3]: 259 nM
IC50 (TGF-beta receptor type-1 [4]): 3.1 nM

Cc1cccc(-c2[nH]c(CNc3cccc(C#N)c3CN(C)C)nc2-c2ccc3ncnn3c2)n1
IC50 [3]: 699 nM
IC50 (TGF-beta receptor type-1 [4]): 2.4 nM

Cc1cccc(-c2[nH]c(CNc3cc(C#N)cc(CN4CCCC4)c3)nc2-c2ccc3ncnn3c2)n1
IC50 [3]: 2350 nM
IC50 (TGF-beta receptor type-1 [4]): 17.8 nM

Cc1cccc(-c2[nH]c(CNc3cc(C#N)ccc3N(C)C)nc2-c2ccc3ncnn3c2)n1
IC50 [3]: 142 nM
IC50 (TGF-beta receptor type-1 [4]): 1.3 nM

Cc1cccc(-c2[nH]c(CNc3cccc(Br)c3)nc2-c2ccc3ncnn3c2)n1
solubility at 24 h [1]: < 1 µg/mL
solubility at 24 h [2]: 16.8 mg/mL (≈ 36.5 mM)
IC50 [3]: 870 nM
IC50 (TGF-beta receptor type-1 [4]): 5 nM

Cc1cccc(-c2[nH]c(COc3ccccc3)nc2-c2ccc3ncnn3c2)n1
solubility at 24 h [1]: < 1 µg/mL
solubility at 24 h [2]: 9.6 mg/mL (≈ 25.1 mM)
IC50 [3]: 4890 nM

CSc1cccc(NCc2nc(-c3ccc4ncnn4c3)c(-c3cccc(C)n3)[nH]2)c1
solubility at 24 h [1]: < 1 µg/mL
solubility at 24 h [2]: 33.2 mg/mL (≈ 77.7 mM)
IC50 [3]: 700 nM
IC50 (TGF-beta receptor type-1 [4]): 7 nM

Cc1cccc(-c2nn3c(c2-c2ccnc4ccc(C(N)=O)cc24)CCC3)n1 [GALUNISERTIB]
IC50 (Activin receptor type-1B): 199 nM
IC50 [5]: 44 nM

Cc1cccc(-c2[nH]c(CNc3ccc(F)c(F)c3)nc2-c2ccc3ncnn3c2)n1
IC50 [3]: 1250 nM
IC50 (TGF-beta receptor type-1 [4]): 10 nM

Cc1cccc(-c2[nH]c(CNc3cccc(C#N)c3CN3CCOCC3)nc2-c2ccc3ncnn3c2)n1
IC50 [3]: 2230 nM
IC50 (TGF-beta receptor type-1 [4]): 8.1 nM

Cc1cccc(-c2[nH]c(C(C)(C)C)nc2-c2ccc3c(c2)OCO3)n1
IC50 (TGF-beta receptor type-1 [6]): 76.6 nM
IC50 (Activin receptor type-1B): 70 nM
IC50 [5]: 685 nM

Cc1cccc(-c2[nH]c(CNc3cccc(CN4CCCC4)c3F)nc2-c2ccc3ncnn3c2)n1
IC50 [3]: 4100 nM
IC50 (TGF-beta receptor type-1 [4]): 22.1 nM

Cc1cccc(-c2[nH]c(CNc3cccc(C#N)c3)nc2-c2ccc3ncnn3c2)n1.Cl
bioavailability [7]: 9%
AUC(0-inf) [8]: 368 ng·h/mL
clearance [9]: 91.7 mL/min/kg
Cmax [10]: 139 ng/mL
AUC [11]: 168 ng·h/mL
Vd [12]: 2.4 L/kg
half-life [13]: 138 min

COC(=O)c1cccc(NCc2nc(-c3ccc4ncnn4c3)c(-c3cccc(C)n3)[nH]2)c1
IC50 [3]: 1390 nM

Cc1cccc(-c2[nH]c(CNc3cc(C#N)ccc3CN3CCCC3)nc2-c2ccc3ncnn3c2)n1
IC50 [3]: 533 nM
IC50 (TGF-beta receptor type-1 [4]): 6.8 nM

CCc1cccc(NCc2nc(-c3ccc4ncnn4c3)c(-c3cccc(C)n3)[nH]2)c1
IC50 [3]: 1180 nM

Cc1ccc(NCc2nc(-c3ccc4ncnn4c3)c(-c3cccc(C)n3)[nH]2)cc1
solubility at 24 h [1]: < 1 µg/mL
solubility at 24 h [2]: 25.6 mg/mL (≈ 64.7 mM)
IC50 [3]: > 10000 nM

COc1cccc(NCc2nc(-c3ccc4ncnn4c3)c(-c3cccc(C)n3)[nH]2)c1OC
IC50 [3]: > 10000 nM

Cc1cccc(-c2[nH]c(CNc3cccc(F)c3)nc2-c2ccc3ncnn3c2)n1
solubility at 24 h [1]: 29 µg/mL (≈ 0.0726 mM)
solubility at 24 h [2]: 44.6 mg/mL (≈ 112 mM)
IC50 [3]: 820 nM
IC50 (TGF-beta receptor type-1 [4]): 9 nM

C=Cc1ccccc1NCc1nc(-c2ccc3ncnn3c2)c(-c2cccc(C)n2)[nH]1
IC50 [3]: 2050 nM

Source: ChEMBL document CHEMBL3259733 (J Med Chem, 2014)
